Measured values from patent US12122781B2, “Hydrates of polymorphs of 6-(1H-indazol-6-yl)-N-(4-morpholinophenyl)-2,3-dihydroimidazo[1,2-a]pyrazin-8-amine bis-mesylate as Syk inhibitors” (Kronos Bio, Inc., priority 2017, dated 2024).

Key:
Type in all cases: physicochemical
[1] = Hygroscopicity by dynamic vapor sorption (DVS); conditions: up to 95% RH at 25° C.; bis-mesylate
Protocol: (§1) Hygroscopicity was studied using dynamic vapor sorption (DVS, TA Q5000 SA, TA Instruments, New Castle, DE or DVS, DVS Intrinsic, Surface Measurement Systems, London, UK). A sample (2-20 mg) was placed in an aluminum DVS pan and loaded on the sample side of the twin pan balance. The water sorption and desorption were studied as a function of relative humidity (RH) at 25° C. In 10% RH increments, the relative humidity was increased from 5% RH to 95% RH and then decreased back to 5%. […] Data analysis was performed using Universal Analysis 2000 Version 4.7A (TA Instruments, New Castle, DE) for TA DVS runs and Microsoft Excel for SMS DVS runs.

[2] = XRPD analysis of the sample after the DVS experiment (solid form stability to humidity); conditions: after DVS cycle 5% RH to 95% RH and back at 25° C.
Protocol: X-ray powder diffraction (XRPD) analysis was conducted on a diffractometer (PANalytical XPERT-PRO, PANalytical B. V., Almelo, Netherlands) using copper radiation (Cu Kα, λ=1.541874). Samples were spread evenly on a zero background sample plate. The generator was operated at a voltage of 45 kV and amperage of 40 mA. Slits were Soller 0.02 rad, antiscatter 1.0°, and divergence. Scans were performed from 2 to 40° 2θ with a 0.0167 step size. Data analysis was performed using X′Pert Data Viewer V1.2d (PANalytical B. V., Almelo, Netherlands).
as §1

[3] = Solid form stability at ambient conditions; conditions: before KF could be run

| SMILES | water absorbed (dynamic vapor sorption) [1] | solid form found by XRPD after the DVS experiment [2] | stability of the polymorphic form at ambient conditions [3] |
| --- | --- | --- | --- |
| C1=C(c2ccc3cn[nH]c3c2)N=C(Nc2ccc(N3CCOCC3)cc2)C2=NCCN12.CS(=O)(=O)O.CS(=O)(=O)O [Amorphous form, 6-(1H-indazol-6-yl)-N-(4-morpholinophenyl)-2,3-dihydroimidazo[1,2-a]pyrazin-8-amine bis-mesylate] | about 38 wt. % | converted to Form VII |  |
| C1=C(c2ccc3cn[nH]c3c2)N=C(Nc2ccc(N3CCOCC3)cc2)C2=NCCN12.CS(=O)(=O)O.CS(=O)(=O)O [Form I, 6-(1H-indazol-6-yl)-N-(4-morpholinophenyl)-2,3-dihydroimidazo[1,2-a]pyrazin-8-amine bis-mesylate] | about 30 wt. % | converted to Form VII |  |
| C1=C(c2ccc3cn[nH]c3c2)N=C(Nc2ccc(N3CCOCC3)cc2)C2=NCCN12.CS(=O)(=O)O.CS(=O)(=O)O [Form II, 6-(1H-indazol-6-yl)-N-(4-morpholinophenyl)-2,3-dihydroimidazo[1,2-a]pyrazin-8-amine bis-mesylate] | about 30 wt. % | converted to Form VII |  |
| C1=C(c2ccc3cn[nH]c3c2)N=C(Nc2ccc(N3CCOCC3)cc2)C2=NCCN12.CS(=O)(=O)O.CS(=O)(=O)O [Form VI, 6-(1H-indazol-6-yl)-N-(4-morpholinophenyl)-2,3-dihydroimidazo[1,2-a]pyrazin-8-amine bis-mesylate] | ~17 wt. % | converted to Form VII |  |
| C1=C(c2ccc3cn[nH]c3c2)N=C(Nc2ccc(N3CCOCC3)cc2)C2=NCCN12.CS(=O)(=O)O.CS(=O)(=O)O [Form XIII, 6-(1H-indazol-6-yl)-N-(4-morpholinophenyl)-2,3-dihydroimidazo[1,2-a]pyrazin-8-amine bis-mesylate] | ~25 wt. % | converted to Form VII | unstable at ambient conditions |
| C1=C(c2ccc3cn[nH]c3c2)N=C(Nc2ccc(N3CCOCC3)cc2)C2=NCCN12.CS(=O)(=O)O.CS(=O)(=O)O [Form XIV, 6-(1H-indazol-6-yl)-N-(4-morpholinophenyl)-2,3-dihydroimidazo[1,2-a]pyrazin-8-amine bis-mesylate] | about 35 wt. % | converted to Form VII |  |
| C1=C(c2ccc3cn[nH]c3c2)N=C(Nc2ccc(N3CCOCC3)cc2)C2=NCCN12.CS(=O)(=O)O.CS(=O)(=O)O [Form XIX, 6-(1H-indazol-6-yl)-N-(4-morpholinophenyl)-2,3-dihydroimidazo[1,2-a]pyrazin-8-amine bis-mesylate] | about 28 wt. % | converted to Form VII |  |
| C1=C(c2ccc3cn[nH]c3c2)N=C(Nc2ccc(N3CCOCC3)cc2)C2=NCCN12.CS(=O)(=O)O.CS(=O)(=O)O [Form XV, 6-(1H-indazol-6-yl)-N-(4-morpholinophenyl)-2,3-dihydroimidazo[1,2-a]pyrazin-8-amine bis-mesylate] | ~23 wt. % | converted to Form VII |  |
| C1=C(c2ccc3cn[nH]c3c2)N=C(Nc2ccc(N3CCOCC3)cc2)C2=NCCN12.CS(=O)(=O)O.CS(=O)(=O)O [Form XVI, 6-(1H-indazol-6-yl)-N-(4-morpholinophenyl)-2,3-dihydroimidazo[1,2-a]pyrazin-8-amine bis-mesylate] | ~28 wt. % | converted to Form VII |  |
| C1=C(c2ccc3cn[nH]c3c2)N=C(Nc2ccc(N3CCOCC3)cc2)C2=NCCN12.CS(=O)(=O)O.CS(=O)(=O)O [Form XVIII, 6-(1H-indazol-6-yl)-N-(4-morpholinophenyl)-2,3-dihydroimidazo[1,2-a]pyrazin-8-amine bis-mesylate] |  | converted to Form VII |  |
